Target: T1, human serum albumin (HSA) (Homo sapiens, UniProt P02768)
T1 construct: gene ALB; fatty-acid-free HSA, commercial (Sigma-Aldrich); mature protein, 585 residues, monomer
Experiment: intrinsic Trp fluorescence quenching, double-log plot
Assay type: binding
Details: 298 K, pH 7.4 PBS 10 mM, HSA 2 μM; λex 280 nm; n = 1.14; site I (subdomain IIA)
Experimental: intrinsic Trp fluorescence quenching, double-log plot on human serum albumin (HSA) | the association constant (Ka) between GDC-0941 and HSA was calculated

T1 sequence (P02768 25-609): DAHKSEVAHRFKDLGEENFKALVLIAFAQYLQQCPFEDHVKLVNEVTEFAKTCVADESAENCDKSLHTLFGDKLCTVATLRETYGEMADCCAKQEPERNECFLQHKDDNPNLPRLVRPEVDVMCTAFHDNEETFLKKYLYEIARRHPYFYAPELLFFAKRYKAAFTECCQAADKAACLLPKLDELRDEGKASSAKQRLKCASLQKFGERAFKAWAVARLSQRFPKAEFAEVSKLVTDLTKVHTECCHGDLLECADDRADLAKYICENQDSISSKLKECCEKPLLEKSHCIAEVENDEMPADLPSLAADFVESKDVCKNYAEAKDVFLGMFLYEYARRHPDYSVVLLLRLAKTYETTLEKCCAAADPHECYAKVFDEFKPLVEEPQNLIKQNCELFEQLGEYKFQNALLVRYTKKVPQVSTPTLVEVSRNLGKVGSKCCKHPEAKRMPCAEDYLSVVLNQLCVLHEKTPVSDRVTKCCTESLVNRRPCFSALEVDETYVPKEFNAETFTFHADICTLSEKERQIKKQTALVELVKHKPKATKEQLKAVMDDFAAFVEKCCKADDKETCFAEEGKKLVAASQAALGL

## CS(=O)(=O)N1CCN(Cc2cc3nc(-c4cccc5[nH]ncc45)nc(N4CCOCC4)c3s2)CC1 [GDC-0941]
  Ka (×10^5 M^-1): 4.09 ×10^5 M^−1
